Measurements as given in PubChem BioAssay AID651659 (Broad Institute, 2012).
Activity calls are given as the source filed them.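 How the source made its calls: active means signal drops, with AC50 within twice each sample's top valid tested dose; inconclusive means flat curve at 30 to 70% inhibition, or poor fit; inactive means signal moves against the expected drop, plus the rest.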

target: Mitogen-activated protein kinase 3 (Homo sapiens) (UniProt P27361); experiment: ERK1 kinase inhibitors, dose response, selectivity assay for Dyrk1A inhibitor NFAT project, biochemical, ADP-Glo luminescence, dry powder, set 2 (AID 651659); conditions: 120 min
Sequence (P27361 whole entry, looked up): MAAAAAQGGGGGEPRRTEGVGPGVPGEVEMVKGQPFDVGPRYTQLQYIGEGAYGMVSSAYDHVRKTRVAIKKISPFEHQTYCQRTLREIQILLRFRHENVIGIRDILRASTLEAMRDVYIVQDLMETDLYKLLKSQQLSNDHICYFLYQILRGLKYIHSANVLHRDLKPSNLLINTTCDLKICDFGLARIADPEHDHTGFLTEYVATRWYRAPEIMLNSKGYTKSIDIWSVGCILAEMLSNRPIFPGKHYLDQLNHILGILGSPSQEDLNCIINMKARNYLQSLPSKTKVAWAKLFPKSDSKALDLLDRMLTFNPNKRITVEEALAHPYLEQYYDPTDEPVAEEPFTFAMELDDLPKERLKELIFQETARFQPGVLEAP

| Compound | AC50 |
| --- | --- |
| CN(CC(=O)Nc1nc2ccc(Cl)cc2s1)S(=O)(=O)c1ccc(C#N)cc1 | 5.91 µM |
| COc1ccc(-c2csc(NC(=O)CSCC(=O)N3CCCC3)n2)cc1 | > 20 µM (inactive) |
| CN(CC(=O)Nc1nc2ccc(F)cc2s1)S(=O)(=O)c1ccc(Cl)cc1 | > 20 µM (inactive) |

same assay, conditions: 120 min, at 1.1 µM (top of the series)

| Compound | activity change, negative = inhibition |
| --- | --- |
| CC(C)n1cnc2cc(NCc3cccc4ccccc34)ccc21 | inactive |

same assay, conditions: 120 min, at 10 µM (top of the series)

| Compound | activity change, negative = inhibition |
| --- | --- |
| Cc1sc(NC(=O)CSCc2ccccc2)nc1-c1ccccc1 | inactive |
| COc1ccc2c(c1)[nH]c1c(C)nccc12 | inactive |
| COc1ccc(C2=Nn3c(nnc3-c3ccncc3)SC2)cc1 | inactive |
| COc1ccc2nc(NC(=O)C3CCN(S(=O)(=O)c4cccnc4)CC3)sc2c1 | inactive |
| COc1ccc2c(Cl)c(C(=O)NC(C)C)sc2c1 | inactive |
| COc1ccc(OC)c(C2=Nn3c(nnc3-c3ccncc3)SC2)c1 | inactive |
| Cc1csc(NC(=O)C2CCCN(S(=O)(=O)c3cccc4nonc34)C2)n1 (stereo not given) | inactive |
| COc1ccc2c(Cl)c(C(=O)NCc3cccnc3)sc2c1 | inactive |
| COc1ccc(C2=Nn3c(nnc3-c3cccnc3)SC2)cc1 | inactive |
| COc1ccc(S(=O)(=O)N2CCCC(C(=O)Nc3nc4ccccc4s3)C2)cc1 (stereo not given) | inactive |
| O=C(NCc1ccccc1)c1sc2ccccc2c1Cl | inactive |
| CN(CC(=O)Nc1nc2ccccc2s1)S(=O)(=O)c1ccccc1 | inactive |
| CN(CC(=O)Nc1nc2ccccc2s1)S(=O)(=O)c1ccc(Cl)cc1 | inactive |
| COc1ccc2nc(NC(=O)C3CCN(S(=O)(=O)c4ccc(C)cc4)CC3)sc2c1 | inactive |
| Cc1ccc(S(=O)(=O)N(C)CC(=O)Nc2nc3ccc(Cl)cc3s2)cc1C | inactive |
| Cc1ccc(S(=O)(=O)N(C)CC(=O)Nc2nc3ccccc3s2)cc1 | inactive |
| CCOc1ccc2nc(NC(=O)C3CCCN(S(=O)(=O)c4cccc5cccnc45)C3)sc2c1 (stereo not given) | inactive |
| COc1ccc2c(Cl)c(C(=O)NCc3ccccc3)sc2c1 | inactive |
| COc1ccc2nc(NC(=O)C3CCCN(S(=O)(=O)c4cccc5nonc45)C3)sc2c1 (stereo not given) | inactive |
| COc1ccc2nc(NC(=O)C3CCCN(S(=O)(=O)c4cccc5nsnc45)C3)sc2c1 (stereo not given) | inactive |
| C=CCn1cnc2scc(-c3ccc(OC)cc3)c2c1=O | inactive |

| Compound | activity change, negative = inhibition |
| --- | --- |
| COc1ccc(NC(=O)C2CCCN(S(=O)(=O)c3cccc4nonc34)C2)cc1 (stereo not given) | inactive |
| CN(CC(=O)Nc1nc2ccc(Cl)cc2s1)S(=O)(=O)c1ccc(Cl)cc1 | inactive |
| CCCCN(c1nc2ccccc2s1)S(=O)(=O)c1ccc(Cl)cc1 | inactive |
| COc1ccc(OC)c(C2=Nn3c(nnc3-c3ccccn3)SC2)c1 | inactive |
| CN(CC(=O)Nc1nccs1)S(=O)(=O)c1ccc(Cl)cc1 | inactive |
| COc1ccc(CNC(=O)c2sc3ccccc3c2Cl)cc1 | inactive |
| COc1ccc2c(Cl)c(C(N)=O)sc2c1 | inactive |
| COc1ccc2nc(NC(=O)CN(C)S(=O)(=O)c3ccc(F)cc3)sc2c1 | inactive |
| COc1ccc(OC)c(C2=Nn3c(nnc3-c3ccccc3)SC2)c1 | inactive |
| COc1cccc(C2=Nn3c(nnc3-c3ccccc3)SC2)c1 | inactive |
| COc1ccc(C2=Nn3c(nnc3-c3cccnc3)SC2)cc1OC | inactive |
| Cc1cccc2sc(NC(=O)CN(C)S(=O)(=O)c3ccc(Cl)cc3)nc12 | inactive |
| Clc1ccc(CSc2nc(Nc3ccc4c(c3)OCO4)c3ccccc3n2)cc1 | inactive |
| O=C(NCc1ccco1)c1sc2ccccc2c1Cl | inactive |
| COc1ccc2nc(NC(=O)C3CCN(S(=O)(=O)c4cccc5nsnc45)CC3)sc2c1 | inactive |
| Cc1ccccc1S(=O)(=O)Cc1ccc(C(=O)NC(C)c2ccc3c(c2)OCCO3)o1 (stereo not given) | inactive |
| CCOc1ccc2nc(NC(=O)COc3ccc(Cl)c(OC)c3)sc2c1 | inactive |
| COc1ccc(OC)c(CNC(=O)c2sc3ccccc3c2Cl)c1 | inactive |
| COc1ccc2nc(NC(=O)C3CCN(S(=O)(=O)c4cccc5nonc45)CC3)sc2c1 | inactive |
| COc1ccc2nc(NC(=O)C3CCCN(S(=O)(=O)c4cccc5cccnc45)C3)sc2c1 (stereo not given) | inactive |
